{
  "source": "paper PMC7252906",
  "about": "(Toxicology and applied pharmacology, 2019)",
  "key": {"[1]": {"experiment": "Disposition of [^14C]DMAE after single gavage administration, strain comparison", "assay_type": "in vivo", "details": "male Sprague Dawley rats, gavage 500 mg/kg, 24 h"}, "[2]": {"experiment": "Incorporation of [^14C]DMAE-derived radioactivity in tissue lipids", "assay_type": "in vivo, Wistar Han rats", "details": "gavage 100 mg/kg, 2 h; for Radioactivity in tissue lipids (% dose administered) / Total radioactivity in tissue lipids: male rats"}, "[3]": {"experiment": "Radiochemical HPLC profiling of urine after [^14C]DMAE", "assay_type": "in vivo, Harlan Sprague Dawley rats"}, "[4]": {"experiment": "Effect of DMAE on serum choline levels and conversion of DMAE to choline", "assay_type": "in vivo, Wistar Han rats", "details": "male rats, gavage 500 mg/kg [^14C]DMAE, 1 h post-dose (remained up to 12 h); pre-dose approximately 17 ng/mL"}, "[5]": {"experiment": "Disposition of DMAE after gavage, rats and mice summarised together", "assay_type": "in vivo, Wistar Han rats and B6C3F1 mice", "details": "range over groups"}, "[6]": {"details": "female Wistar Han rats, gavage 500 mg/kg, 24 h"}, "[7]": {"details": "male Wistar Han rats, IV 10 mg/kg, 24 h"}},
  "note": "Several values for one entry are separate records, joined by “and”; a condition that tells them apart may be missing. Identical values can stand only once. Like-named read-outs stand apart in the source and are kept apart here.",
  "data": [
    {"smiles": "CN(C)CCO", "note": "[DMAE, Dimethylaminoethanol]", "values": [
      {"measurement": "% Dose Recovered, CO2", "setting": "[1]", "value": "2.94 ± 0.230", "unit": "% dose"},
      {"measurement": "% Dose Recovered, Feces", "setting": "[1]", "value": "0.538 ± 0.335", "unit": "% dose"},
      {"measurement": "% Dose Recovered, Tissues and GI Tract (includes contents)", "setting": "[1]", "value": "34.1 ± 1.80", "unit": "% dose"},
      {"measurement": "% Dose Recovered, Total Recovered", "setting": "[1]", "value": "98.3 ± 3.50", "unit": "% dose"},
      {"measurement": "% Dose Recovered, Urine", "setting": "[1]", "value": "60.4 ± 3.80", "unit": "% dose"},
      {"measurement": "% Dose Recovered, VOCs", "setting": "[1]", "value": "0.220 ± 0.047", "unit": "% dose"},
      {"measurement": "highest level of radioactivity incorporated into lipids in any tissues", "setting": "[2]; male Wistar Han rats", "value": "~ 1 % of the administered dose"},
      {"measurement": "Radioactivity in tissue lipids (% dose administered)", "setting": "[2]; Brain, Fatty Acids", "value": 0.020, "unit": "% dose"},
      {"measurement": "Total radioactivity in tissue lipids", "setting": "[2]; Brain, Fatty Acids", "value": 34},
      {"measurement": "Radioactivity in tissue lipids (% dose administered)", "setting": "[2]; Brain, Neutral Lipids", "value": 0.075, "unit": "% dose"},
      {"measurement": "Total radioactivity in tissue lipids", "setting": "[2]; Brain, Neutral Lipids", "value": 107},
      {"measurement": "Radioactivity in tissue lipids (% dose administered)", "setting": "[2]; Brain, Phospholipids", "value": 0.097, "unit": "% dose"},
      {"measurement": "Total radioactivity in tissue lipids", "setting": "[2]; Brain, Phospholipids", "value": 167},
      {"measurement": "Radioactivity in tissue lipids (% dose administered)", "setting": "[2]; Heart, Fatty Acids", "value": 0.010, "unit": "% dose"},
      {"measurement": "Total radioactivity in tissue lipids", "setting": "[2]; Heart, Fatty Acids", "value": 17},
      {"measurement": "Radioactivity in tissue lipids (% dose administered)", "setting": "[2]; Heart, Neutral Lipids", "value": 0.028, "unit": "% dose"},
      {"measurement": "Total radioactivity in tissue lipids", "setting": "[2]; Heart, Neutral Lipids", "value": 40},
      {"measurement": "Radioactivity in tissue lipids (% dose administered)", "setting": "[2]; Heart, Phospholipids", "value": 0.188, "unit": "% dose"},
      {"measurement": "Total radioactivity in tissue lipids", "setting": "[2]; Heart, Phospholipids", "value": 323},
      {"measurement": "Radioactivity in tissue lipids (% dose administered)", "setting": "[2]; Kidney, Fatty Acids", "value": 0.047, "unit": "% dose"},
      {"measurement": "Total radioactivity in tissue lipids", "setting": "[2]; Kidney, Fatty Acids", "value": 81},
      {"measurement": "Radioactivity in tissue lipids (% dose administered)", "setting": "[2]; Kidney, Neutral Lipids", "value": 0.029, "unit": "% dose"},
      {"measurement": "Total radioactivity in tissue lipids", "setting": "[2]; Kidney, Neutral Lipids", "value": 41},
      {"measurement": "Radioactivity in tissue lipids (% dose administered)", "setting": "[2]; Kidney, Phospholipids", "value": 0.771, "unit": "% dose"},
      {"measurement": "Total radioactivity in tissue lipids", "setting": "[2]; Kidney, Phospholipids", "value": 1322},
      {"measurement": "Radioactivity in tissue lipids (% dose administered)", "setting": "[2]; Liver, Phospholipids", "value": 1.117, "unit": "% dose"},
      {"measurement": "Total radioactivity in tissue lipids", "setting": "[2]; Liver, Phospholipids", "value": 1915},
      {"measurement": "Radioactivity in tissue lipids (% dose administered)", "setting": "[2]; Lung, Fatty Acids", "value": 0.074, "unit": "% dose"},
      {"measurement": "Total radioactivity in tissue lipids", "setting": "[2]; Lung, Fatty Acids", "value": 127},
      {"measurement": "Radioactivity in tissue lipids (% dose administered)", "setting": "[2]; Lung, Neutral Lipids", "value": 0.276, "unit": "% dose"},
      {"measurement": "Total radioactivity in tissue lipids", "setting": "[2]; Lung, Neutral Lipids", "value": 395},
      {"measurement": "Radioactivity in tissue lipids (% dose administered)", "setting": "[2]; Lung, Phospholipids", "value": 0.926, "unit": "% dose"},
      {"measurement": "Total radioactivity in tissue lipids", "setting": "[2]; Lung, Phospholipids", "value": 1587},
      {"measurement": "Radioactivity in tissue lipids (% dose administered)", "setting": "[2]; Skin, Fatty Acids", "value": 0.007, "unit": "% dose"},
      {"measurement": "Total radioactivity in tissue lipids", "setting": "[2]; Skin, Fatty Acids", "value": 12},
      {"measurement": "Radioactivity in tissue lipids (% dose administered)", "setting": "[2]; Skin, Neutral Lipids", "value": 0.003, "unit": "% dose"},
      {"measurement": "Total radioactivity in tissue lipids", "setting": "[2]; Skin, Neutral Lipids", "value": 4},
      {"measurement": "Radioactivity in tissue lipids (% dose administered)", "setting": "[2]; Skin, Phospholipids", "value": 0.251, "unit": "% dose"},
      {"measurement": "Total radioactivity in tissue lipids", "setting": "[2]; Skin, Phospholipids", "value": 430},
      {"measurement": "Radioactivity in tissue lipids (% dose administered)", "setting": "[2]; Spleen, Fatty Acids", "value": 0.004, "unit": "% dose"},
      {"measurement": "Total radioactivity in tissue lipids", "setting": "[2]; Spleen, Fatty Acids", "value": 7},
      {"measurement": "Radioactivity in tissue lipids (% dose administered)", "setting": "[2]; Spleen, Neutral Lipids", "value": 0.004, "unit": "% dose"},
      {"measurement": "Total radioactivity in tissue lipids", "setting": "[2]; Spleen, Neutral Lipids", "value": 7},
      {"measurement": "Radioactivity in tissue lipids (% dose administered)", "setting": "[2]; Spleen, Phospholipids", "value": 0.055, "unit": "% dose"},
      {"measurement": "Total radioactivity in tissue lipids", "setting": "[2]; Spleen, Phospholipids", "value": 95},
      {"measurement": "Radioactivity in tissue lipids (% dose administered)", "setting": "[2]; Testes, Fatty Acids", "value": 0.013, "unit": "% dose"},
      {"measurement": "Total radioactivity in tissue lipids", "setting": "[2]; Testes, Fatty Acids", "value": 23},
      {"measurement": "Radioactivity in tissue lipids (% dose administered)", "setting": "[2]; Testes, Neutral Lipids", "value": 0.008, "unit": "% dose"},
      {"measurement": "Total radioactivity in tissue lipids", "setting": "[2]; Testes, Neutral Lipids", "value": 11},
      {"measurement": "Radioactivity in tissue lipids (% dose administered)", "setting": "[2]; Testes, Phospholipids", "value": 0.097, "unit": "% dose"},
      {"measurement": "Total radioactivity in tissue lipids", "setting": "[2]; Testes, Phospholipids", "value": 167},
      {"measurement": "Estimated percentage of area of DMAE peak in urine chromatogram", "setting": "[3]; Rat/Female, [^14C]DMAE 500 mg/kg, Oral", "value": 55, "unit": "%"},
      {"measurement": "Estimated percentage of area of DMAE peak in urine chromatogram", "setting": "[3]; Rat/Male, [^14C]DMAE 10 mg/kg, IV", "value": 3, "unit": "%"},
      {"measurement": "Estimated percentage of area of DMAE peak in urine chromatogram", "setting": "[3]; Rat/Male, [^14C]DMAE 10 mg/kg, Oral", "value": 95, "unit": "%"},
      {"measurement": "Estimated percentage of area of DMAE peak in urine chromatogram", "setting": "[3]; Rat/Male, [^14C]DMAE 100 mg/kg, Oral", "value": 56, "unit": "%"},
      {"measurement": "Estimated percentage of area of DMAE peak in urine chromatogram", "setting": "[3]; Rat/Male, [^14C]DMAE 500 mg/kg, Oral", "value": 34, "unit": "%"},
      {"measurement": "mean serum choline level", "setting": "[4]", "value": "~23", "unit": "ng/mL"},
      {"measurement": "excreted as exhaled CO2", "setting": "[5]", "value": "3–22%"},
      {"measurement": "excreted in urine", "setting": "[5]", "value": "16–69%"},
      {"measurement": "tissue retention", "setting": "[5]", "value": "21–44%"},
      {"measurement": "administered dose recovered in tissues (excluding GI tract)", "setting": "Wistar Han rats, oral, 24 h post-exposure, range over groups", "value": "21–29%"},
      {"measurement": "% Dose Recovered, Feces", "setting": "[6]", "value": "0.549 ± 0.147", "unit": "% dose"},
      {"measurement": "% Dose Recovered, Tissues and GI Tract (includes contents)", "setting": "[6]", "value": "27.4 ± 1.40", "unit": "% dose"},
      {"measurement": "% Dose Recovered, Total Recovered", "setting": "[6]", "value": "98.4 ± 0.800", "unit": "% dose"},
      {"measurement": "% Dose Recovered, VOCs", "setting": "[6]", "value": "0.818 ± 0.456", "unit": "% dose"},
      {"measurement": "% Dose Recovered, CO2", "setting": "female Wistar Han rats, gavage 500 mg/kg, 24 h, listed as [^14C]DMAE, 500 mg/kg", "value": "6.09 ± 0.810", "unit": "% dose"},
      {"measurement": "% Dose Recovered, CO2", "setting": "[7]", "value": "3.52 ± 0.780", "unit": "% dose"},
      {"measurement": "% Dose Recovered, Feces", "setting": "[7]", "value": "0.330 ± 0.092", "unit": "% dose"},
      {"measurement": "% Dose Recovered, Tissues and GI Tract (includes contents)", "setting": "[7]", "value": "38.5 ± 2.30", "unit": "% dose"},
      {"measurement": "% Dose Recovered, VOCs", "setting": "[7]", "value": "0.230 ± 0.029", "unit": "% dose"},
      {"measurement": "% Dose Recovered, Urine", "setting": "male Wistar Han rats, IV 10 mg/kg, 24 h, 10 mg/kg", "value": 39, "unit": "% dose"},
      {"measurement": "% Dose Recovered, Total Recovered", "setting": "male Wistar Han rats, IV 10 mg/kg, 24 h, listed as [^14C]DMAE, 10 mg/kg", "value": "82 % dose and 81.8 ± 7.10 % dose"}
    ]}
  ]
}
